Like-named read-outs stand apart in the source and are kept apart here.
Experiments:
[1] = biological target: HDAC1 (Homo sapiens, UniProt Q13547); assay: HDAC biochemical activity measurement (fluorescent substrate deacetylation);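 also: fluorogenic acetyl-lysine substrate (20 µM) deacetylated by HDAC1, then developer releases fluorophore read at 360 nm excitation and 460 nm emission, inhibitor incubated 30 min at 37 °C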
[2] = biological target: T1, HDAC11 (Homo sapiens, UniProt Q96DB2); assay: as above;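 also: HDAC11 enzyme acting on an acetyl-lysine fluorogenic substrate, then a developer frees the fluorophore, read at excitation 360 nm and emission 460 nm, IC50 over a compound dilution series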
T1 sequence (Q96DB2 1-347): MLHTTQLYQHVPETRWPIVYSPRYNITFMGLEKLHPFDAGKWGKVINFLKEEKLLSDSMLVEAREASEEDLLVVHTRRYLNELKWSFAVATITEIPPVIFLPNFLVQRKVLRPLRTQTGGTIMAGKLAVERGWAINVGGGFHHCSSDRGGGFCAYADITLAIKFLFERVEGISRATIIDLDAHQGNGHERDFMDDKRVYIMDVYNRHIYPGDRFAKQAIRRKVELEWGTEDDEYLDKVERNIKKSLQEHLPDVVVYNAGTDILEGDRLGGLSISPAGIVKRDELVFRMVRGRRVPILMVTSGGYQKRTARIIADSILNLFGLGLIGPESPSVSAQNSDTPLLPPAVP

[3] = biological target: T2, HDAC8 (Homo sapiens, UniProt Q9BY41); assay: as above; conditions: 37° C. 30 minutes
T2 sequence (Q9BY41 1-377): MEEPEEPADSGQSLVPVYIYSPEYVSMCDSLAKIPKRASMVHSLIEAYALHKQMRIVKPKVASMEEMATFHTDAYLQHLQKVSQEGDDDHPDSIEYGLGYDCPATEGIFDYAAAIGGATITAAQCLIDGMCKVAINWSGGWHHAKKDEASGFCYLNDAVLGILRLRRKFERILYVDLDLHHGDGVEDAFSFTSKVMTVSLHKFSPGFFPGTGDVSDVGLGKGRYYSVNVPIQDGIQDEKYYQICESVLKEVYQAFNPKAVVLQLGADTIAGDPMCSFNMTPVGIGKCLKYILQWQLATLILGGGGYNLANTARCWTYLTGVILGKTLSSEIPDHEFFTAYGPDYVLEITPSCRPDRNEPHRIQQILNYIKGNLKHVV

[4] = tested on: A549 (human lung cancer cells); assay: MTT cancer cell growth inhibition; type: cell-based; conditions: Homo sapiens, A549, 72 h, MTT
In short: (§1)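 Read-out was formazan absorbance at 570 nm after a 4 h MTT step and DMSO solubilisation, converted to cell viability and fitted for GI50. Beforehand, cells (1500/well, overnight attachment) were treated with compound at 10^−5 to 10^−10 M for 72 h at 37° C.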

[5] = tested on: HT1080 (human fibrosarcoma cells); assay: MTT cancer cell growth inhibition; type: cell-based; conditions: Homo sapiens, HT-1080, 72 h, MTT
In short: as §1

[6] = tested on: HCC827 (human non-small cell lung cancer cells); assay: MTT cancer cell growth inhibition; type: cell-based; conditions: Homo sapiens, HCC827, 72 h, MTT, 72 hours incubation, HCC827 cells; read-out: GI50 HCC827
In short: as §1

[7] = tested on: SGC-7901 (human gastric cancer cells); assay: MTT cancer cell growth inhibition; type: cell-based; conditions: Homo sapiens, SGC-7901, 72 h, MTT, 72 hours incubation, SGC-7901 cells; read-out: GI50 SGC-7901
In short: as §1

[8] = tested on: MOLT-4 (human acute lymphoblastic leukemia cells); assay: MTT cancer cell growth inhibition; type: cell-based; conditions: Homo sapiens, MOLT-4, 72 h, MTT
In short: as §1

[9] = tested on: Hela (human cervical cancer cells); assay: MTT cancer cell growth inhibition; type: cell-based; conditions: Homo sapiens, HeLa, 72 h, MTT
In short: as §1

[10] = tested on: PANC-1 (Pac-1, human pancreatic cancer cells); assay: MTT cancer cell growth inhibition; type: cell-based; conditions: Homo sapiens, PANC-1, 72 h, MTT
In short: as §1

[11] = tested on: BGC-823 (human gastric cancer cells); assay: MTT cancer cell growth inhibition; type: cell-based; conditions: Homo sapiens, BGC-823, 72 h, MTT
In short: as §1

[12] = tested on: Bel-7402 (human hepatoma cells); assay: MTT cancer cell growth inhibition; type: cell-based; conditions: Homo sapiens, Bel-7402, 72 h, MTT, 72 hours incubation, Bel-7402 cells; read-out: GI50 Bel-7402
In short: as §1

[13] = tested on: MDA-MB-231 (breast cancer cells); assay: MTT cancer cell growth inhibition; type: cell-based; conditions: Homo sapiens, MDA-MB-231, 72 h, read-out: GI50 MDA-MB-231, MTT, 72 hours incubation, MDA-MB-231 cells
In short: as §1

[14] = tested on: Huh-7 (human hepatoma cells); assay: MTT cancer cell growth inhibition; type: cell-based; conditions: Homo sapiens, Huh-7, 72 h, MTT, 72 hours incubation, Huh-7 cells; read-out: GI50 Huh-7
In short: as §1

[15] = tested on: DU145 (human prostate cancer cells); assay: MTT cancer cell growth inhibition; type: cell-based; conditions: Homo sapiens, DU-145, 72 h, MTT
In short: as §1

[16] = tested on: MCF-7 (human breast cancer cells); assay: MTT cancer cell growth inhibition; type: cell-based; conditions: Homo sapiens, MCF7, 72 h
In short: as §1

[17] = tested on: U937 (human leukemia cells); assay: MTT cancer cell growth inhibition; type: cell-based; conditions: Homo sapiens, U-937, 72 h, MTT
In short: as §1

[18] = tested on: N-87 (human gastric cancer cells); assay: MTT cancer cell growth inhibition; type: cell-based; conditions: Homo sapiens, 72 h, MTT, 72 hours incubation, N-87 cells; read-out: GI50 N-87
In short: as §1

[19] = HDAC1, 37° C. 30 minutes, read-out: IC50 HDAC1
[20] = read-out: IC50 HDAC11, HDAC11, 37° C. 30 minutes
[21] = 72 hours incubation, read-out: GI50 A54
[22] = 72 hours incubation, read-out: GI50 HT1
[23] = 72 hours incubation, read-out: GI50 Mol
[24] = 72 hours incubation, read-out: GI50 Hela
[25] = 72 hours incubation, read-out: GI50 PAN
[26] = 72 hours incubation, read-out: GI50 BG
[27] = 72 hours incubation, read-out: GI50 Du1
[28] = 72 hours incubation, read-out: GI50 MCF
[29] = 72 hours incubation, read-out: GI50 U93
[30] = Table 2, read-out: IC50 HDAC1, a (compounds of the present invention)
[31] = A549 cells, 72 hours incubation, read-out: GI50 A54
[32] = 72 hours, present invention, read-out: GI50 A549, a
[33] = HT1080 cells, 72 hours incubation, read-out: GI50 HT1
[34] = 72 hours, present invention, read-out: GI50 HT1080, a
[35] = 72 hours, present invention, read-out: GI50 Molt-4, a
[36] = Hela cells, 72 hours incubation, read-out: GI50 Hela
[37] = 72 hours, present invention, read-out: GI50 Hela, a
[38] = 72 hours, present invention, read-out: GI50 PANC-1, a
[39] = PANC-1 cells, 72 hours incubation, read-out: GI50 PAN
[40] = BGC-823 cells, 72 hours incubation, read-out: GI50 BG
[41] = 72 hours, present invention, read-out: GI50 BGC823, a
[42] = 72 hours, present invention, read-out: GI50 Du145, a
[43] = 72 hours, present invention, read-out: GI50 MCF7, a
[44] = MCF-7 cells, 72 hours incubation, read-out: GI50 MCF
[45] = 72 hours, present invention, read-out: GI50 U937, a
[46] = Table 3, read-out: IC50 HDAC1, D (non-substituent)

HDAC1, sequence (Q13547 whole entry, species assumed): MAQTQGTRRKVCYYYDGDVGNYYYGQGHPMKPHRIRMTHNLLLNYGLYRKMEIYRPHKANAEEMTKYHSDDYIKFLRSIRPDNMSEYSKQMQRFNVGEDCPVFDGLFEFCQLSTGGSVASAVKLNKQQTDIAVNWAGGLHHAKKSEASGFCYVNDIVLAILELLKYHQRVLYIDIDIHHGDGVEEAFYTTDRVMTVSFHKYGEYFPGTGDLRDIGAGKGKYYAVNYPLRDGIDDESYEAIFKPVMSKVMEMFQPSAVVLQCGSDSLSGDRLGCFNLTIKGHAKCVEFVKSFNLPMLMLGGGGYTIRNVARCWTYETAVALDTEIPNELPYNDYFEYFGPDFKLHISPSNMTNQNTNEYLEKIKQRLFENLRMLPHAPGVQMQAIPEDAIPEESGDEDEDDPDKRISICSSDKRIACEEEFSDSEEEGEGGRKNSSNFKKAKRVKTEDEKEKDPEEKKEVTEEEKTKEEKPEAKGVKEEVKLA

Row | Structure (SMILES) | IC50 [1, 19] [nM] | IC50 [2, 20] [nM] | IC50 [3] [nM] | GI50 [4, 21] [nM] | GI50 [5, 22] [nM] | GI50 [6] [nM] | GI50 [7] [nM] | GI50 [8, 23] [nM] | GI50 [9, 24] [nM] | GI50 [10, 25] [nM] | GI50 [11, 26] [nM] | GI50 [12] [nM] | GI50 [13] [nM] | GI50 [14] [nM] | GI50 [15, 27] [nM] | GI50 [16, 28] [nM] | GI50 [17, 29] [nM] | GI50 [18] [nM] | IC50 [2] [nM] | other results
1 | C/C=C1\NC(=O)c2cc(F)cc(n2)CNC(=O)C[C@@H](/C=C/CCSC(=O)CCCC)OC(=O)[C@H](C(C)C)NC1=O [Compound 40] | 43 | 96 | 45 | 40 | 70 | 74 | 45 | 30 | 70 | 70 | 70 | 74 | 35 | 35 | 40 | 50 | 40 | 71 |  | IC50 ([1]; Table 3, column C, read-out: IC50 HDAC1, C (six-membered ring with substituents)): 43 nM
2 | C/C=C1\NC(=O)c2cccc(n2)CNC(=O)C[C@@H](/C=C/CCSC(=O)CCCCCCC)OC(=O)[C@H](Cc2cccc3ccccc23)NC1=O [Compound 239] | 77 | 28 | 89 |  |  | 31 | 35 |  |  |  |  | 28 | 25 | 51 |  |  |  | 46 |  | IC50 [1, 30]: < 100 nM; GI50 [4, 31]: 10 nM; GI50 [4, 32]: 12 nM; GI50 [5, 33]: 10 nM; GI50 [5, 34]: 11 nM; GI50 [8, 35]: 4 nM; GI50 [9, 36]: 11 nM; GI50 [9, 37]: 11 nM; GI50 [10, 38]: 130 nM; GI50 [10, 39]: 130 nM; GI50 [11, 40]: 20 nM; GI50 [11, 41]: 22 nM; GI50 [15, 42]: 1 nM; GI50 [16, 43]: 19 nM; GI50 [16, 44]: 10 nM; GI50 [17, 45]: 3 nM
3 | C/C=C1\NC(=O)c2cccc(n2)CNC(=O)C[C@@H](/C=C/CCSC(=O)CCCCCCC)OC(=O)[C@H](Cc2ccccc2)NC1=O [Compound 14] | 94 | 103 | 57 | 100 | 300 | 18 | 43 | 20 | 220 | 530 | 200 | 84 | 85 | 92 | 10 | 400 | 30 | 36 |  | IC50 [1, 30]: < 100 nM; IC50 [1, 46]: 94 nM; GI50 [4, 32]: 100 nM; GI50 [5, 34]: 300 nM; GI50 [8, 35]: 20 nM; GI50 [9, 37]: 220 nM; GI50 [10, 38]: 530 nM; GI50 [11, 41]: 200 nM; GI50 [15, 42]: 12 nM; GI50 [16, 43]: 400 nM; GI50 [17, 45]: 3 nM
4 | C/C=C1\NC(=O)c2cccc(n2)CNC(=O)C[C@@H](/C=C/CCSC(C)=O)OC(=O)[C@H](CCCCNC(=O)OCC2c3ccccc3-c3ccccc32)NC1=O [Compound 16] | 181 | 95 | 61 | 4200 | 1300 | 49 | 51 | 700 | 21000 | 4100 | 2100 | 91 | 93 | 43 | 6100 | 49500 | 17900 | 27 |  | IC50 [1, 46]: 181 nM

Further lines, with some results ahead:

Row | IC50 [1, 19] [nM] | IC50 [2, 20] [nM] | IC50 [3] [nM] | GI50 [4, 21] [nM] | GI50 [5, 22] [nM] | GI50 [6] [nM] | GI50 [7] [nM] | GI50 [8, 23] [nM] | GI50 [9, 24] [nM] | GI50 [10, 25] [nM] | GI50 [11, 26] [nM] | GI50 [12] [nM] | GI50 [13] [nM] | GI50 [14] [nM] | GI50 [15, 27] [nM] | GI50 [16, 28] [nM] | GI50 [17, 29] [nM] | GI50 [18] [nM] | IC50 [2] [nM] | Structure (SMILES) | other results
5 | 51 |  | 41 | 30 | 80 | 84 | 35 | 20 | 70 | 80 | 50 | 84 | 29 | 29 | 60 | 20 | 50 | 55 | 96 | C/C=C1\NC(=O)c2ccc(F)c(n2)CNC(=O)C[C@@H](/C=C/CCSC(=O)CCCCCCC)OC(=O)[C@H](Cc2ccccc2)NC1=O [Example 71] | 
6 | 72 |  | 28 |  |  | 28 | 83 |  |  |  |  | 96 | 57 | 75 |  |  |  | 28 | 72 | C/C=C1\NC(=O)c2nc(ccc2SC)CNC(=O)C[C@@H](/C=C/CCSC(=O)CCCCC)OC(=O)[C@H](C(C)C)NC1=O [Compound 153] | GI50 [4, 31]: 30 nM; GI50 [5, 33]: 80 nM; GI50 ([8]; MOLT-4 cells, 72 hours incubation, read-out: GI50 Mol): 80 nM; GI50 [9, 36]: 50 nM; GI50 [10, 39]: 20 nM; GI50 [11, 40]: 20 nM; GI50 ([15]; DU145 cells, 72 hours incubation, read-out: GI50 Du1): 60 nM; GI50 [16, 44]: 60 nM; GI50 ([17]; U937 cells, 72 hours incubation, read-out: GI50 U93): 30 nM
7 | 273 |  | 435 | 40 | 40 | 43 | 49 | 20 | 30 | 40 | 30 | 43 | 24 | 24 | 30 | 350 | 20 | 37 | 672 | C/C=C1\NC(=O)c2ccc(F)c(n2)CNC(=O)C[C@@H](/C=C/CCSC(C)=O)OC(=O)[C@H](CCCCN)NC1=O [Example 74] | 

Reference: patent publication US10065990B2, “Cyclic peptide compound, and preparation method, pharmaceutical composition and use thereof” (HANGZHOU GUANYU BIO-MEDICAL CO., LTD, priority 2013, dated 2018)
